Assays:
[1] = Differential scanning calorimetry of unilamellar DPPC vesicles with added sugar; format: physicochemical; conditions: for cooperativity of the transition (peak width at half peak height, PWHH) / enthalpy of main phase transition / main phase transition temperature of DPPC liposomes: increasing mole ratio of sugar to lipid; for main phase transition temperature of DPPC liposomes: DSC 30-60 °C at 2 °C/min, DPPC alone ~42 °C
Description: Methods: Unilamellar vesicles were prepared by extrusion. Sucrose or sucralose was added to the vesicles to achieve the desired mole ratio after vesicle formation. Differential scanning calorimetry was used to examine the main phase behavior of the liposome bilayer. Thermograms were obtained in the heating and cooling directions between 30° C. and 60° C. at a rate of 2° C./min.

red blood cells [2] = assay: Percent hemolysis of red blood cells on addition of sucralose (no freezing); format: cell-based, sheep; conditions: measured against PBS buffer and triton X
Description: (§1) Experiments that measure the percent hemolysis of red blood cells before and after treatment were carried out using sheep blood.
(§2) We measured absorption at three wavelengths (450 nm, 500 nm and 525 nm, shown in FIGS. 10, 11 and 12, respectively). […] That is why the error bars are smallest for those.

red blood cells [3] = assay: Percent hemolysis of red blood cells frozen with sucralose and thawed; format: cell-based, sheep; conditions: for protective effect compared with 20% glycerol solution: equivalent volume of 20% v/v glycerol, blood frozen for 48 hours; for protection during freezing (hemolysis): measured against triton X and PBS
Description: as §1
This is data from blood frozen for 48 hours.
as §2

mouse myoblasts = assay: Cytotoxicity of sucralose on nucleated cells; format: cell-based
Description: Protection against hemolysis of red blood cells in the presence of increasing amounts of sucralose was examined at 3.5×(˜0.7 billion cells/ml) and 7×(˜1.4 billion cells/ml) the original red blood cell count, and are shown in FIGS. 15A and 15B, respectively. […] In addition, studies on the cytotoxicity of sucralose on nucleated cells, mouse myoblasts, indicate that sucralose concentrations in excess of about 2.5% w/v may have toxic effects.

SMILES	shoulders in thermograms (indicative of phase separation) ([1]; cooling cycle)	shoulders in thermograms (indicative of phase separation) ([1]; heating cycle)	cooperativity of the transition (peak width at half peak height, PWHH) [1]	enthalpy of main phase transition [1]	main phase transition temperature of DPPC liposomes [1]	induction of hemolysis on addition (red blood cells [2])	protective effect compared with 20% glycerol solution (red blood cells [3])	protective effect compared with 20% glycerol solution (red blood cells [3]; listed as sugar)	protection during freezing (hemolysis) (red blood cells [3]; frozen and thawed)	protection during freezing (hemolysis) (red blood cells [3]; frozen and thawed, listed as sugar)	sucralose concentration resulting in decreased efficacy in protecting red blood cells from hemolysis (red blood cells [3]; frozen and thawed, ~0.7 and ~1.4 billion cells/ml)	amount of sucralose required for cryopreservation of red blood cells (red blood cells [3]; red blood cell count about 0.2 to 1.4 billion cells/ml)	sucralose concentration that may have toxic effects (mouse myoblasts)
OC[C@H]1O[C@H](O[C@]2(CCl)O[C@H](CCl)[C@@H](O)[C@@H]2O)[C@H](O)[C@@H](O)[C@H]1Cl [sucralose, 1,6-Dichloro-1,6-dideoxy-β-D-fructofuranosyl-4-chloro-4-deoxy-α-D-galactopyranoside]	not seen	a shoulder is seen in some thermograms	drastic decrease in cooperativity	remained essentially unchanged	decreased significantly	does not induce hemolysis	better than using an equivalent volume of a 20% glycerol solution	performs better than a 20% v/v solution of glycerol	substantially reduces hemolysis	protective effect	above 2.5 % w/v	increases with an increase of red blood cell concentration	above 2.5 % w/v
OC[C@H]1O[C@@](CO)(O[C@H]2O[C@H](CO)[C@@H](O)[C@H](O)[C@H]2O)[C@@H](O)[C@@H]1O [sucrose]	shoulders are again observed	shoulders appear	decrease in cooperativity	remains relatively stable	little change	–	–	–	–	–	–	–	–
